According to patent US6566587B1, “Mutated 5-enolpyruvylshikimate-3-phosphate synthase, gene coding for said protein and transformed plants containing said gene” (priority 1995, dated 2003):

Legend:
[1] = test system: BMS (Black Mexican Sweet) maize cells not bombarded; test: Growth of maize cells on medium containing herbicide; assay type: cell-based; details: 2 mM in medium
Description: (§1) BMS (Black Mexican Sweet) maize cells in an exponential growth phase are bombarded with the construction pRPA-RD-130 according to the principle and the protocol described by Klein et al. 1987 (Klein T. M., Wolf E. D., Wu R. and Sandford J. C. (1987): High velocity microprojectiles for delivering nucleic acids into living cells, NATURE Vol. 327 pp. 70-73).
(§2) Two days after bomardment, the cells are transferred to the same medium containing 2 mM N-(phosphonomethyl)glycine.

[2] = test system: BMS (Black Mexican Sweet) maize cells bombarded with the construction pRPA-RD-130; test: Selection of transformed maize cells on medium containing herbicide; assay type: cell-based; details: 2 mM in medium, 8 weeks of selection
Description: as §1, §2

[3] = test system: maize EPSPS mutant Ile102/Ser106 (Thr 102→Ile and Pro 106→Ser); test: In vitro EPSP synthase activity, inhibition by glyphosate (phosphate liberated); assay type: biochemical
Description: (§3) 2.a: Extraction of EPSP synthase The different EPSP synthase genes are introduced in the form of an NcoI-HindIII cassette into the plasmid vector pTro99a (Pharmacia, ref: 27-5007-01) cut with NcoI and HindIII. Recombinant E. coli DH10B bacteria overexpressing the different EPSP synthases are sonicated in 40 ml of buffer per 10 g of pelleted cells, and washed with this same buffer (200 mM Tris-HCl pH 7.8, 50 mM mercaptoethanol, 5 mM EDTA and 1 mM PMSF), to which 1 g of polyvinylpyrrolidone is added. The suspension is stirred for 15 minutes at 4° C. and then centrifuged for 20 minutes at 27,000 g and 4° C.
(§4) Ammonium sulphate is added to the supernatant to bring the solution to 40% saturation with respect to ammonium sulphate. The mixture is centrifuged for 20 minutes at 27,000 g and 4° C. Ammonium sulphate is added to the new supernatant to bring the solution to 70% saturation with respect to ammonium sulphate. The mixture is centrifuged for 30 minutes at 27,000 g and 4° C. The EPSP synthase present in this protein pellet is taken up in 1 ml of buffer (20 mM Tris-HCl pH 7.8 and 50 mM mercaptoethanol). This solution is dialysed overnight against two liters of this same buffer at 4° C.
(§5) The activity of each enzyme, as well as its glyphosate resistance, is measured in vitro over 10 minutes at 37° C. in the following reaction mixture: 100 mM maleic acid pH 5.6, 1 mM phosphoenolpyruvate, 3 mM shikimate 3-phosphate (prepared according to Knowles P. R. and Sprinson D. B. 1970. Methods in Enzymol 17A, 351-352 from Aerobacter aerogenes strain ATCC 25597) and 10 mM potassium fluoride. The enzyme extract is added at the last moment after the addition of glyphosate, the final concentration of which varies from 0 to 20 mM.
(§6) The activity is measured by assaying the phosphate liberated according to the technique of Tausky H. A. and Shorr E. 1953. J. Biol. Chem. 202, 675-685.

[4] = test system: maize EPSPS mutant Ala101/Ile102 (Gly 101→Ala and Thr 102→Ile); test: as above; assay type: biochemical
Description: as §3, §4, §5, §6

[5] = biological target: T1, maize EPSPS mutant Ile102 (Thr 102→Ile) (Zea mays, UniProt O24566, T102I); test: as above; assay type: biochemical; details: 10 minutes at 37° C., pH 5.6, 1 mM phosphoenolpyruvate
T1 sequence (O24566 1-444 T102I): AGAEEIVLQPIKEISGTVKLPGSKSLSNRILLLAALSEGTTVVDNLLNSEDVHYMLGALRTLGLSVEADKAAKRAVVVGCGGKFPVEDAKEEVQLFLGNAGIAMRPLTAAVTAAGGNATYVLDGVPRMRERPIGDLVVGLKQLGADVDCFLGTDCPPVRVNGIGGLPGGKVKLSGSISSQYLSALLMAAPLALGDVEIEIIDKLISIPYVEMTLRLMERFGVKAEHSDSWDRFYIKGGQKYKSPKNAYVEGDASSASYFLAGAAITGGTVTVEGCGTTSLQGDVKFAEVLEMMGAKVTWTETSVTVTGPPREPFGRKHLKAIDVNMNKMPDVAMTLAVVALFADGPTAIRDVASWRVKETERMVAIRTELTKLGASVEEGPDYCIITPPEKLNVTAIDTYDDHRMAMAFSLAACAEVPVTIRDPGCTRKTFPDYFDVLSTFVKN
Description: as §3, §4, §5, §6

[6] = test system: wild-type (WT) maize EPSPS; test: as above; assay type: biochemical; details: glyphosate 0.12 mM; 10 minutes at 37° C., pH 5.6, 1 mM phosphoenolpyruvate
Description: as §3, §4, §5, §6

[7] = test system: maize EPSPS mutant Ser106 (Pro 106→Ser); test: as above; assay type: biochemical; details: glyphosate 0.12 mM; 10 minutes at 37° C., pH 5.6, 1 mM phosphoenolpyruvate
Description: as §3, §4, §5, §6

[8] = test system: maize EPSPS mutant Ala; test: as above; assay type: biochemical
Description: as §3, §4, §5, §6

[9] = glyphosate concentrations up to 10 mM

Structure (SMILES): O=C(O)CNCP(=O)(O)O [glyphosate, N-(phosphonomethyl)glycine]
- cell growth on medium containing herbicide [1]: blocked by the herbicide and do not develop
- callus development on selection medium [2]: calluses which develop
- inhibition of enzyme activity ([3]; glyphosate 0.12 mM): little or no inhibition
- inhibition of enzyme activity ([3]; glyphosate 1.2 mM): still not being inhibited
- inhibition of enzyme activity ([3]; glyphosate 20 mM): not reduced
- inhibition of enzyme activity ([4]; glyphosate 0.12 mM): little or no inhibition
- inhibition of enzyme activity ([4]; glyphosate 1.2 mM): still not being inhibited
- inhibition of enzyme activity [4, 9]: not inhibited
- IC50 ([5]; read-out: glyphosate concentration producing a 50% inhibition): 1200 µM
- inhibition of enzyme activity ([5]; glyphosate 0.12 mM): little or no inhibition
- inhibition of enzyme activity [6]: 85%
- inhibition of enzyme activity [7]: 50%
- inhibition of enzyme activity ([8]; glyphosate 1.2 mM): still not being inhibited
- inhibition of enzyme activity [8, 9]: not inhibited
